# Test results from paper PMC10497752, “Heparins are potent inhibitors of ectonucleotide pyrophosphatase/phospho-diesterase-1 (NPP1) – a promising target for the immunotherapy of cancer” (Frontiers in Immunology, 2023).
# Key:
# human NTPDase8 = molecular target: T1, human NTPDase8 (Homo sapiens, UniProt Q5MY95); assay: NTPDase CE-based assay, NTPDase8; assay type: biochemical; conditions: 20 µg/mL (12 µM)
# T1 construct: made in house; host or cells: COS-7 cells
# T1 sequence (Q5MY95 1-495): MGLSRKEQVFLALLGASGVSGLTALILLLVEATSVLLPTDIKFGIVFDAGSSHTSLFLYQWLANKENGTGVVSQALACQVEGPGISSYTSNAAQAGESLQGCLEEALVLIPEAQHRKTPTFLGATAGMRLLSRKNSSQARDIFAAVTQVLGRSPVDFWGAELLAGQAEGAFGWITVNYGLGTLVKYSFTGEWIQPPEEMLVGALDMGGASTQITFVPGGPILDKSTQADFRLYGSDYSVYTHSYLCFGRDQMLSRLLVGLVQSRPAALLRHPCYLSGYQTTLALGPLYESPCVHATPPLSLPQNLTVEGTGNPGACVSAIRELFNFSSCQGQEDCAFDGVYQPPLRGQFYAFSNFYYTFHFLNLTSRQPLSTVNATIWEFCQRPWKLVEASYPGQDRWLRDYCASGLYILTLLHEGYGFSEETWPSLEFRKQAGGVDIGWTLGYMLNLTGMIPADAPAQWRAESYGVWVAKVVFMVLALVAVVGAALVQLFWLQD
# Procedure: (§1) For monitoring the activity of human NTPDases (subtypes 1, 2, 3 and 8) in the presence of test compounds, a CE-based assay system was used, according to a published procedure ([11], [25]). The following concentrations of test compounds were investigated in initial screening studies: 63 IU/mL of compounds 1 and 2, 30 µM of compound 6. For selectivity studies, the following concentration were employed: 50 IU/mL of 1, 12 µM of 6, and 48 µM of 7. The amount of enzyme was selected according to previously performed enzymatic titration, and adjusted to ensure a 10–20% conversion rate. Enzymes were obtained by transfection of COS-7 cells using plasmids encoding human NTPDase1 (GenBank accession number U87967) ([26]), NTPDase2 (NM_203468) ([27]), a kind gift of Dr. A.F. Knowles (San Diego, CA), NTPDase3 (AF034840) ([28]), a kind gift of Dr. T.L. Kirley (Cincinnati, OH) and human NTPDase8 (AY430414) ([29]) and purified as previously described ([30], [31]). The reaction buffer consisted of 10 mM HEPES, 2 mM CaCl2, and 1 mM MgCl2, pH 7.4. In the CE assay, the selected substrate concentration (ATP) was 100 µM for all studied human NTPDases (-1, -2, -3 and -8). […] The released products were separated by CE and quantified by their UV-absorption at 260 nm with ADP and AMP as external standards, as previously described ([11]); positive and negative controls were included.
# human CD4+ T cells = assay: Induced Treg differentiation assay; assay type: cell-based; conditions: U87 cells preincubated with 20 µM ATP plus heparin; supernatant added to CD4+ T cells, day 5 flow cytometry
# Procedure: Human CD4^+ T cells were extracted from buffy coats by positive selection using the StraightFrom™ Buffy Coat CD4 MicroBead Kit (Miltenyi Biotec, Bergisch Gladbach, Germany). CD4^+ T cells were stimulated by ImmunoCult™ Human CD3/CD28/CD2 T Cell Activator at day 1. At days 1 and 3, the indicated compounds or U87 cell supernatant, either of untreated or of heparin-treated cells were added to CD4^+ T cells. Cells were harvested at day 5 and were investigated for CD25 and FoxP3 expression. Therefore, cells were washed once with staining buffer (1% BSA, 0.01% NaN3 in PBS). To avoid nonspecific binding, cells were blocked for 15 min with 3% BSA in PBS. Anti-CD25 antibody (PerCP/Cyanine5.5 anti-human CD25 antibody, RRID : AB_2125478, BioLegend Inc, San Diego, CA, USA) was added and the cells were incubated for 30 min in the dark. Subsequently, cells were washed once with staining buffer and fixed in 150 µL of fixation buffer (3% paraformaldehyde (PFA), 0.1% saponin, and 0.5% Tween-20 in Dulbecco's phosphate-buffered saline) for 30 min at 4°C. […] Samples were measured in triplicates using the Guava® easyCyte HT Flow Cytometer (Merck Millipore, Billerica, MA, USA). Compensation and FMO (fluorescence minus one) controls were conducted. […] Data were evaluated using the FlowJo™ v10.5.3 Software (RRID : SCR_008520, BD Life Sciences, Franklin Lakes, NJ, USA) and Graphpad PRISM 8.4.0.
# human NTPDase2 = molecular target: T2, human NTPDase2 (Homo sapiens, UniProt Q9Y5L3); assay: NTPDase CE-based assay, NTPDase2; assay type: biochemical; conditions: 20 µg/mL (12 µM); read-out: NTPDase2 inhibition, selectivity study
# T2 construct: made in house; host or cells: COS-7 cells
# T2 sequence (Q9Y5L3 1-495): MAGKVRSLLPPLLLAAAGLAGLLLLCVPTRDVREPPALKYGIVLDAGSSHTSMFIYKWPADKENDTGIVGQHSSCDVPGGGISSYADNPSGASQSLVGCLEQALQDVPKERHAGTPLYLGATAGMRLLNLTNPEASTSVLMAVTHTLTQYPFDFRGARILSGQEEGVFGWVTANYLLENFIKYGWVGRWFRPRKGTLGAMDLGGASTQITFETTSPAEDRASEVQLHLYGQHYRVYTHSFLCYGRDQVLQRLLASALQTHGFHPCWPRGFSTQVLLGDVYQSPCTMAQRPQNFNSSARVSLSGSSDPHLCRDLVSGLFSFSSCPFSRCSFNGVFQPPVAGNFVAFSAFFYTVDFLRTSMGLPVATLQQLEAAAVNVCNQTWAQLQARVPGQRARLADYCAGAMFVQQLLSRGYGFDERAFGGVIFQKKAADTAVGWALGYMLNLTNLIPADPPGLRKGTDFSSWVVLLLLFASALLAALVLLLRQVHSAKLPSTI
# Procedure: as §1
smiles,measurement,setting,value
"CO[C@H]1O[C@H](COS(=O)(=O)O)[C@@H](O[C@@H]2O[C@@H](C(=O)O)[C@@H](O[C@H]3O[C@H](COS(=O)(=O)O)[C@@H](O[C@@H]4O[C@H](C(=O)O)[C@@H](O[C@H]5O[C@H](COS(=O)(=O)O)[C@@H](O)[C@H](O)[C@H]5NS(=O)(=O)O)[C@H](O)[C@H]4O)[C@H](OS(=O)(=O)O)[C@H]3NS(=O)(=O)O)[C@H](O)[C@H]2OS(=O)(=O)O)[C@H](O)[C@H]1NS(=O)(=O)O [Compound 6, Fondaparinux]","NTPDase8 inhibition, selectivity study",human NTPDase8,no effect
same,Treg formation (CD25/FoxP3 positive cells) induced by supernatant of ATP-treated U87 cells,human CD4+ T cells,reduced Treg formation even below that of the control cells
same,inhibition at 12 µM,human NTPDase2,~35%
